The values below come from patent US20260337212A1, “IP4-4,6 SUBSTITUTED DERIVATIVE COMPOUNDS FOR USE IN THE TREATMENT, INHIBITION OF PROGRESSION, AND PREVENTION OF ECTOPIC CALCIFICATION” (SANIFIT THERAPEUTICS, S.A., priority 2022, published 2026).

Assay [1] in a line: In vitro inhibition of calcium phosphate crystallization in human plasma (spectrophotometric). As to conditions: 0-100 μM, 1.5 mM phosphate, 12.5 mM calcium, pH 7.4, 30 min, rt, read-out: Relative Potency (EC50, inhibition of calcium phosphate crystallization). It counts as biochemical. The protocol: The in vitro efficacy of the IP4-4,6 substituted derivatives (e.g., Compounds 1 to 53) of the invention on the inhibition of calcium phosphate crystallization in human plasma samples was evaluated according to a spectrophotometric assay previously described in the art (Ferrer M, et al., Sci Rep 2017; 7:6858, doi:10.1038/s41598-017-07203-x).
A 96-well plate was employed. Plasma was spiked (1 volume of the IP4-4,6 substituted derivatives of the invention per 19 volumes of plasma) with increasing concentrations of the derivatives in the range of 0-100 μM. Plasma was then centrifuged at 10,000 g at rt and subsequently mixed with a mixture of 5 mM hydrogen phosphate and 41.67 mM calcium to attain final concentrations of 1.5 mM phosphate and 12.5 mM calcium, respectively. All reagent solutions were filtered, and pH adjusted to 7.4.
Crystallization of calcium phosphate was monitored spectrophotometrically for 30 min at rt by measuring the increments in absorbance at 550 nm using the Biotek Powerwave XS Microplate spectrophotometer (BioTek Instruments, Inc., Winooski, VT, US). The plate was incubated at rt in an orbital shaker and absorbance measured every 3 min.
Plasma crystallization was assessed based on slope measurement in the linear range between 6 and 24 min from plots of increase in absorbance versus logarithm of time. The efficacy of different myo-inositol phosphates derivatives in preventing in vitro formation of calcium phosphate crystals was assessed in human plasma samples using the slopes obtained between 6- and 24-min. Inhibition of crystallization was measured by comparing the slopes of the control sample (blank plasma) with those of samples containing the inhibitor as shown below: […]

For assay [2], the system named is interstitial cells from aortic human valves (VIC). Briefly: Calcification of interstitial cells from calcified human aortic valves (Alizarin Red). It counts as cell-based. The settings on record: 1, 3, 10, 30, 100 μM; 3 weeks osteodifferentiation media; FIG. 15. The procedure: Calcification was measured by Alizarin Red staining and quantified spectrophotometrically as relative calcification. Values are shown as dot plots with mean. A one-way ANOVA for parametric distributions (IP6) with DMS post-test statistical analysis was performed. For not normally distributed results (Compound 1, Compound 3, and Compound 6), a nonparametric one-way ANOVA (Kruskal-Wallis test) with Dunn's post-test was applied, p<0.05 was considered statistically significant.
The dose-response efficacy of IP4-4,6 derivatives in the treatment of calcified aortic human valves was analyzed using an in vitro model (Zabirnyk A, et al., Vasc Pharmacol 2019; 122-123, 106583, doi:10.1016/j.vph.2019.106583). The model evaluated the effects of IP6, Compound 1, Compound 3, and Compound 6 on the calcification of interstitial cells from aortic human valves (VIC).
Human calcified aortic valve leaflets were obtained during aortic valve replacement and were harvested. After the removal of the valve endothelial cells, VIC were isolated. The leaflets were placed in 30 mL of basic growth medium (DMEM), supplemented with 10% fetal bovine serum (FBS) and 50 μg/mL gentamycin with the addition of 1 mg/mL collagenase II. The cells were incubated overnight at 37° C. with 5% CO2. Next day, the digested tissue was homogenized by pipetting with a serological pipet and centrifuged at 300 g for 5 min and the supernatant carefully removed by aspiration.
The pellet was washed in 10 mL of fresh DMEM and centrifuged as described previously. The supernatant was removed by aspiration, the cell pellet was resuspended in basic growth media and seeded in […]. VIC were cultured at 37° C. and 5% CO2 with growth media changed twice a week until they reached ~90% confluency. Cells were passaged at ratio of 1:2, propagated and frozen. […]
Alizarin Red staining was performed to assess calcification. […] To quantify calcium accumulation, Alizarin Red staining was extracted and measured spectrophotometrically. […]

As usually defined, the EC50 is the concentration giving half of the maximal effect. Turning to “4,6-O-di(tetradecyl)-myo-inositol-1,2,3,5-tetrakis(phosphate) octasodium salt [Compound 3]”, in assay [1], the half-maximal effective concentration (EC50) is at most 5 µM. For the same compound, the “Inhibition of the calcification of VIC” value in assay [2] is reported as “effective in inhibiting the calcification of VIC in vitro in a dose-response manner”.

Take “4,6-O-dipentyl-myo-inositol-1,2,3,5-tetrakis(phosphate) octasodium salt [Compound 1]”: the EC50 in assay [1] was at most 5 µM. In addition, the “Inhibition of the calcification of VIC” value in assay [2] is given as “effective in inhibiting the calcification of VIC in vitro in a dose-response manner”.

`O=P([O-])([O-])O[C@@H]1[C@@H](OCCCCCO)[C@H](OP(=O)([O-])[O-])[C@H](OP(=O)([O-])[O-])[C@H](OP(=O)([O-])[O-])[C@H]1OCCCCCO.[Na+].[Na+].[Na+].[Na+].[Na+].[Na+].[Na+].[Na+]` [Compound 6, 4,6-O-bis(5-hydroxypentyl)-myo-inositol-1,2,3,5-tetrakis(phosphate) octasodium salt]: the concentration giving a half-maximal response (EC50) in assay [1] was at most 5 µM. Further, the “Inhibition of the calcification of VIC” value in assay [2] is reported as “effective in inhibiting the calcification of VIC in vitro in a dose-response manner”.
